Test results from article PMC9863002, “Amino Derivatives of Diaryl Pyrimidines and Azolopyrimidines as Protective Agents against LPS-Induced Acute Lung Injury” (Molecules, 2023).

Tests used:
[1] = MTT cytotoxicity study; format: cell-based, C57bl/6j mice; settings: male, C57bl/6j, mouse; peritoneal macrophages, 24 h incubation
Description: (§1) Peritoneal macrophages (PM) were isolated from the peritoneal exudate of 30 male C57bl/6j mice. To accumulate PM, 1 mL of 3% peptone solution was injected intraperitoneally. After 3 days, the mice were euthanized by cervical dislocation. Cells of peritoneal exudate were obtained by aseptic washing of the abdominal cavity with 5 mL of sterile Hanks’s solution (+4–6 °C) without calcium and magnesium ions. The total number and viability of cells were assessed in a Goryaev counting chamber (Russia) with a 0.4% trypan blue staining (Sigma-Aldrich, St. Louis, MO, USA). The cell concentration was adjusted to 1.0 × 10^6 cells/mL in DMEM (Gibco, Waltham, MA, USA) supplemented with 2 mM L-glutamine (Gibco), 10% heat-inactivated fetal bovine serum (BioClot, Bavaria, Germany), 100 U/mL penicillin, and […] streptomycin (Gibco) and plated 200 µL/well in 96-well transparent plates (SPL Life Sciences Co., Ltd., Pocheon-si, Republic of Korea). After 2 h at 37 °C in a humidified atmosphere with 5% CO2, the wells were washed to remove non-adherent cells. After 24 h of incubation, 20 µL of the supernatants were substituted with 20 µL of solutions of test compounds, followed by E. coli O127:B8 LPS (100 ng/mL final concentration) after 30 min. The experiments were run in 3 independent replicates.
(§2) The activity of lactate dehydrogenase (LDH) in a cell culture medium served as a marker of membrane permeability and cell death. Aliquots of supernatants were taken after 24 h of inoculation with test compounds, mixed with 250 µL of […] NADH solution in 54 mM phosphate-buffered saline (pH 7.5). Then, 25 µL of a 6.48 mM pyruvate solution was added to the mixture. The optical density was followed at a wavelength of 340 nm for 20 min. The MTT test was performed 24 h after incubations of cells with tested compounds. Briefly, 20 µL of MTT solution was added to each well and incubated at 37 °C in a humidified atmosphere containing 5% CO2 for 4 h. The culture medium was removed, the cells were lysed, and formazan crystals were dissolved in 150 µL DMSO. The plates were shaken at room temperature for 10 min, and the optical density was measured in a microplate reader Infinite M200 PRO (Tecan, Grödig, Austria) at a wavelength of 565 nm.

[2] = system: peritoneal macrophages; test: MTT cytotoxicity study; format: cell-based, C57bl/6j mice
Description: as §1, §2

[3] = system: phagocytic activity of C57bl/6j peritoneal macrophages; test: Phagocytosis assay (yeast); format: cell-based, C57bl/6j mice; settings: 72 h of incubation
Description: Peritoneal macrophages of C57bl/6j mice were cultured in a 24-well plate at a volume of 500 µL/well (1 × 10^5 cells/mL) for 24 h. Test compounds or DMSO were added to wells in triplicate followed by 50 µL of 1% yeast suspension, and the plates were incubated for 40 min. After 24 or 72 h, the medium was removed. The cells were fixed with May–Grunwald methanol dye and stained with Azur–Eosin in Romanovsky’s modification for 45 min at room temperature, washed, air-dried, and analyzed using a microscope Mikmed-6 (Russia), equipped with a digital camera. The study was performed in three technical replicates and two series; 100 macrophages were processed in each sample to count the captured yeast cells. Macrophage spreading was assessed as a number of pseudopodia.

[4] = system: IL-6 release in LPS-stimulated primary murine peritoneal macrophages; test: Inhibition of IL-6 release in LPS-stimulated macrophages (ELISA); format: cell-based, C57bl/6j mice; settings: Mus musculus, Peritoneal macrophage; LPS-stimulated (100 ng/mL E. coli LPS) peritoneal macrophages; n.a. = not active
Description: as §1
(§3) The cell supernatant was collected and centrifuged at 1000× g for 20 min in a 2–16 PK centrifuge (Sigma, Osterode am Harz, Germany). The concentrations of IL-6 and TNF-alpha were determined by ELISA using commercial kits (Cloud-clone, Houston, TX, USA) with a microplate reader Infinite M200 PRO (Tecan, Grödig, Austria).

[5] = system: NO synthesis in LPS-stimulated primary murine peritoneal macrophages; test: Inhibition of NO synthesis in LPS-stimulated macrophages (Griess); format: cell-based, C57bl/6j mice; settings: Mus musculus, Peritoneal macrophage; LPS-stimulated (100 ng/mL E. coli LPS) peritoneal macrophages, supernatants after 22 h; n.a. = not active
Description: as §1
The accumulation of the nitrite anion (a stable end product of NO decomposition) in supernatants was determined using a standard Griess reagent. Briefly, 50 µL of supernatants were collected 22 h after incubation of PM, and the test and control compounds were mixed with 50 µL of 1% sulfonamide in 2.5% H3PO4 and 50 µL of 0.1% N-(1-naphthyl) ethylenediamine in 2.5% H3PO4. After incubation at 23 °C for 10 min in an orbital shaker, the optical density was determined at a wavelength of 550 nm with a microplate reader Infinite M200 PRO (Tecan, Grödig, Austria).

[6] = system: LPS-induced acute lung injury in C57BL/6J mice; test: LPS-induced acute lung injury: biochemical markers of inflammation (IL-6, lung permeability index); format: in vivo; settings: 6e 30 mg/kg i.p., 24 h after LPS
Description: as §3
(§4) The randomization of C57BL/6J mice was performed by body weight and motor activity in an open field test. […] The control animals received an equal volume of the vehicle. After 1 h, the mice were anesthetized with isoflurane inhalation until their breathing rate was decreased. The mice were suspended by the front incisors on an inclined surgical table, the tongue was pulled out with narrow curved tweezers, and 1 mg/mL of E. coli O127:B8 LPS (Sigma-Aldrich, St. Louis, MO, USA) in 1 mL/kg sterile saline was instilled into the back of the oropharynx. Intact control animals received an equal volume of sterile saline similarly.
(§5) The mice were anesthetized with 500 mg/kg chloral hydrate (Sigma-Aldrich, St. Louis, MO, USA) intraperitoneally 24 h after LPS administration. Blood was taken by intracardiac puncture in test tubes with heparin. The blood samples were centrifuged at 1000× g and 4 °C for 15 min on a 2–16 PK centrifuge (Sigma, Germany), and plasma was separated and stored at −80 °C until the assay. Thoracotomy was performed, the ligature was applied to the left bronchus and the trachea was cannulated with a 20 G needle. The right lung was washed twice with 0.7 mL of warm sterile saline. After combining aliquots, the bronchoalveolar lavage (BAL) was centrifuged at 800× g and 4 °C for 10 min. The supernatant was separated and stored at −80 °C until the assay. The residual cell pellet was resuspended in 50 µL of PBS for further study. The left lung was washed in saline and placed in 10% buffered formalin for morphological evaluation.
The concentration of total protein in BAL supernatants was determined spectrophotometrically with the pyrogallol red method, and the protein in the blood plasma was determined with the biuret method using commercial kits (Vital, Saint Petersburg, Russia) and bovine serum albumin as the standard. The lung permeability index was calculated as the protein concentration in the BAL to plasma ratio.

[7] = system: LPS-induced acute lung injury in C57BL/6J mice; test: LPS-induced acute lung injury: leukocyte markers in blood, BAL and spleen; format: in vivo; settings: dexamethasone 5 mg/kg, 6e 30 mg/kg i.p.; 24 h after LPS
Description: as §4, §5
The total number of leukocytes in heparinized blood was determined after staining with methylene blue in Goryaev’s counting chamber at ×100 magnification. Smears of blood and BAL cell pellets were air-dried, fixed according to May–Grunwald for 3 min, and stained according to Romanowsky–Giemsa. After 30 min, the slides were washed, air-dried, and examined with an immersion objective (×1000 total magnification). On each slide, a total of at least 100 cells were calculated.

[8] = system: LPS-induced acute lung injury in C57BL/6J mice; test: LPS-induced acute lung injury: open field test; format: in vivo; settings: 6e 30 mg/kg i.p., within 24 h after LPS; for motor activity in the open field test, in words: dexamethasone 5 mg/kg
Description: as §4
The animals were placed in the center of a round open field with an arena of 44 cm diameter and 32 cm wall height under 300 lux lighting. During 5 min of observation, horizontal motor activity, vertical motor activity, time spent in the central part, the number of exits to the central part, and exploratory activity parameters were recorded. Body temperature was determined rectally.

[9] = system: LPS-induced acute lung injury in C57BL/6J mice; test: LPS-induced acute lung injury: histological study; format: in vivo; settings: 24 h after LPS; for Mean Injury Score (semi-quantitative morphological score of lung tissue damage): score 0-3, dexamethasone 5 mg/kg, 6e 30 mg/kg i.p. 1 h before oropharyngeal LPS
Description: as §4, §5
The sections were examined under a light microscope (Zeiss, Germany) by a double-blind method.

Row | Compound | CC50 at 24 h [1] [µM] | IC50 [4] [µM] | IC50 [5] [µM] | also measured
1 | Cc1nc(-c2ccccc2)cc(-c2ccccc2N)n1 [Compound 6a] | > 100 |  |  | cytotoxicity in the MTT test, in words [2]: pronounced cytotoxicity; macrophage phagocytic activity (number of phagocytes), in words [3]: preserve macrophage phagocytic activity; phagocytic capacity (number of yeast cells per macrophage), in words [3]: significantly suppressed macrophage phagocytic capacity; decrease of the mean number of phagocytosed particles ([3]; vs DMSO): 35%
2 | Cc1nc(-c2ccccc2)cc(-c2ccc(N)cc2)n1 [Compound 6b] | 65.6 | 2.18 | 21.1 | 
3 | Cc1nc(-c2ccc(N)cc2)cc(-c2ccc(F)cc2)n1 [Compound 6c] | > 100 | 34.9 | 0.37 | 
4 | Cc1nc(-c2ccc(N)cc2)cc(-c2cccc(N)c2)n1 [Compound 6d] | > 100 |  |  | 
5 | Cc1nc(-c2ccc(N)cc2)cc(-c2ccc(N)cc2)n1 [Compound 6e] | > 100 | 18.4 | 16.2 | lung permeability index, in words ([6]; BAL to plasma protein ratio): preserving the vascular permeability at intact levels; markers of inflammation and lung damage (IL-6 in BAL and plasma, alveolar vessel permeability), in words ([6]; dexamethasone 5 mg/kg): normalized these markers of inflammation and lung damage; plasma IL-6 concentration, in words ([6]; dexamethasone 5 mg/kg): normalized it to intact levels; BAL: ratio of segmented neutrophils to monocytes, in words [7]: amelioration of this ratio; spleen lymphocytes (systemic immunosuppression), in words [7]: preserved normal content of spleen lymphocytes; phagocytic capacity (number of yeast cells per macrophage), in words [3]: retains a nearly normal phagocytic capacity; decrease of the phagocytic index ([3]; vs DMSO): 32%; exploratory behavior in the open field test, in words [8]: improved; motor activity in the open field test, in words [8]: increased the motor activity of mice but was inferior to dexamethasone activity; histological inflammatory lesions of the lung, in words ([9]; 6e 30 mg/kg i.p., H&E): limited inflammatory lesions; Mean Injury Score (semi-quantitative morphological score of lung tissue damage) [9]: 1.83
6 | Nc1ccc(-c2cc(-c3ccc(N)cc3)nc(N)n2)cc1 [Compound 6f] | 96.1 |  | 42.9 | 
7 | CSc1nc(-c2ccc(N)cc2)cc(-c2ccc(N)cc2)n1 [Compound 6g] | > 100 | > 100 | 0.12 | 
8 | Nc1ccc(-c2cc(-c3ccc(F)cc3)n3ncnc3n2)cc1 [Compound 7a] | > 100 | 14.9 | 0.37 | 
9 | Nc1ccc(-c2cc(-c3cccc(N)c3)n3ncnc3n2)cc1 [Compound 7b] | > 100 | 31.4 | 45.3 | 
10 | Nc1ccc(-c2cc(-c3ccc(N)cc3)n3ncnc3n2)cc1 [Compound 7c] | 47.1 | 2.2 | 15.2 | cytotoxicity in the MTT test, in words [2]: pronounced cytotoxicity; macrophage phagocytic activity (number of phagocytes), in words [3]: preserve macrophage phagocytic activity; phagocytic capacity (number of yeast cells per macrophage), in words [3]: significantly suppressed macrophage phagocytic capacity; decrease of the mean number of phagocytosed particles ([3]; vs DMSO): 63%
11 | CCOC(=O)C1=C(C)NC(C)=NC1c1cccc(N)c1 (stereo not drawn) [Compound 10a] | > 100 |  | 323 | 
12 | CCOC(=O)C1=C(C)NC(C)=NC1c1ccc(N)cc1 (stereo not drawn) [Compound 10b] | 178 |  | 71.8 | 
13 | CCOC(=O)C1=C(C)Nc2ncnn2C1c1cccc(N)c1 (stereo not drawn) [Compound 11a] | > 100 |  |  | 
14 | CCOC(=O)C1=C(C)Nc2ncnn2C1c1ccc(N)cc1 (stereo not drawn) [Compound 11b] | > 100 |  |  | 
15 | C[C@@H]1C[C@H]2[C@@H]3CCC4=CC(=O)C=C[C@]4(C)[C@@]3(F)[C@@H](O)C[C@]2(C)[C@@]1(O)C(=O)CO [Dexamethasone, reference compound] | 97.4 | 2.5 | 23.4 | plasma IL-6 concentration, in words ([6]; dexamethasone 5 mg/kg): normalized it to intact levels; blood: recruitment of segmented neutrophils at the expense of lymphocytes, in words [7]: corrected by dexamethasone; spleen lymphocytes (systemic immunosuppression), in words [7]: significantly decreased proliferation of spleen lymphocytes; macrophage phagocytic activity (number of phagocytes), in words [3]: reducing both the number of phagocytes; phagocytic capacity (number of yeast cells per macrophage), in words [3]: reducing both the number of phagocytes and their phagocytic capacity; motor activity in the open field test, in words [8]: corrected by dexamethasone; Mean Injury Score (semi-quantitative morphological score of lung tissue damage) [9]: 1.33
